From publication PMC7583942, “Profiling Anticancer and Antioxidant Activities of Phenolic Compounds Present in Black Walnuts (Juglans nigra) Using a High-Throughput Screening Approach” (Molecules, 2020)
Where two headings read alike, the source gives them in different places.

Key:
[1] = Total antioxidant capacity (TAC) colorimetric assay; settings: for Fold-Increase Over Trolox: coefficient of compound model divided by coefficient of Trolox control; for Slope (in Trolox Equivalents): linear regression of dose-response, 7 concentrations, Cu2+ reagent, 1.5 h, absorbance 570 nm; for total antioxidant capacity compared with the control (Trolox): in words
Method: The antioxidant capacity of the phenolic compounds was evaluated using a total antioxidant capacity (TAC) colorimetric assay kit (K274-100, BioVision, CA, USA), according to the manufacturer’s instructions. Briefly, the phenolic compounds tested at 7 concentrations (as described above) were added to 384-well plates. Subsequently, Cu^2+ working solution (12.5 µL/ well) was added into the sample wells. The 384-well plates were incubated for 1.5 h at room temperature and the absorbance of the samples was then read at 570 nm using a microplate reader (Enspire, Perkin Elmer Inc., Waltham, MA, USA). Trolox was used to standardize the antioxidant capacity, as recommended by the manufacturer. A Trolox standard curve was included, and the total antioxidant capacity of the phenolic compounds was interpolated and expressed as Trolox equivalent (mM) from a seven-parameter logistic curve of the Trolox control using curve-fitting software.
For total antioxidant capacity analysis, linear regression analysis was performed to identify the linear regression equation for each compound using GraphPad Prism 8 (San Diego, CA, USA). The coefficient of the compound equation was compared with the coefficient of the Trolox control to determine the relative total antioxidant capacity of each compound. Fold-increase over Trolox was calculated by dividing the coefficient of the compound models by the coefficient of the Trolox control.

[2] = tested on: tumorigenic alveolar epithelial cells (A549); assay: Cell proliferation assay (CellTiter-Glo), A549; format: cell-based, human; settings: read-out: Half maximal inhibitory concentration (IC50), A549 Cell Line
Method: (§1) An Nrf2 antioxidant response element (ARE) reporter HepG2 cell line, a stably transfected liver cell line expressing a firefly luciferase gene under the control of the ARE, was purchased from BPS Bioscience (San Diego, CA, USA). The human alveolar epithelial cell line A549 and the human lung fibroblast cell line MRC-5 were obtained from American Type Culture Collection (ATCC) (CCL-185 and CCL-171, ATCC, Manassas, VA, USA). The HepG2-ARE cells were grown in modified Eagle’s medium (MEM) supplemented with GlutaMAX, 10% fetal calf serum (FBS) and 600ug/mL Geneticin (Thermo Fisher Scientific, Waltham, MA, USA). […] All cells were grown and maintained at 37 °C in a humidified incubator with 5% CO2. Influence of the phenolic compounds on cell growth in the tumorigenic alveolar epithelial cells (A549) and non-tumorigenic lung fibroblast cell (MRC-5) cell lines was investigated using the CellTiter-Glo® cell viability assay kit (G7571, BioVision, CA, USA), according to the manufacturer’s instructions. […] The cultures were treated with the phenolic compounds and DL-Sulphorane (a known antiproliferative agent as a positive control) at 7 final concentrations (as mentioned above) and a vehicle (0.35% DMSO). After 72h of incubation, CellTiter-Glo Luminescent assay reagent (Promega) was dispensed at a volume of 10 µL per well into the 384-well plates for 10 min using the Matrix Wellmate dispenser (Thermo Fisher Scientific). The plates were allowed to incubate at room temperature for 20 min and then the luminescence was read using an Enspire microplate reader (Perkin Elmer Inc.) The relative cytotoxicity (%) of the phenolic compounds was calculated by dividing the specific luminescence absorbance of the treated sampled by the specific luminescence absorbance of the control sample and multiplying by 100. The control sample (in the presence of DMSO vehicle and without the compounds) was set at 100%. Non-linear regression analysis of data was performed to identify the dose-response curve for each compound. The IC50 values (half maximal inhibitory concentration) of each compound were determined from the dose-response curve for the A549 and MRC-5 cell lines using GraphPad Prism 8.

[3] = tested on: non-tumorigenic lung fibroblast cells (MRC-5); assay: Cell proliferation assay (CellTiter-Glo), MRC-5; format: cell-based, human; settings: read-out: Half maximal inhibitory concentration (IC50), MRC-5 Cell Line
Method: as §1

[4] = tested on: antioxidant response element (ARE) in HepG2-ARE cells; assay: Antioxidant response element (ARE) activation, Steady-Glo luciferase reporter assay; format: cell-based, human; settings: for toxicity to HepG2-ARE cells: at high concentrations, did not induce ARE activation
Method: An Nrf2 antioxidant response element (ARE) reporter HepG2 cell line, a stably transfected liver cell line expressing a firefly luciferase gene under the control of the ARE, was purchased from BPS Bioscience (San Diego, CA, USA). The human alveolar epithelial cell line A549 and the human lung fibroblast cell line MRC-5 were obtained from American Type Culture Collection (ATCC) (CCL-185 and CCL-171, ATCC, Manassas, VA, USA). The HepG2-ARE cells were grown in modified Eagle’s medium (MEM) supplemented with GlutaMAX, 10% fetal calf serum (FBS) and 600ug/mL Geneticin (Thermo Fisher Scientific, Waltham, MA, USA). The tumorigenic alveolar epithelial cells (A549) and non-tumorigenic lung fibroblast cells (MRC-5) were grown in RPMI medium supplemented with 10% FBS. All cells were grown and maintained at 37 °C in a humidified incubator with 5% CO2.
The impact of the phenolic compounds on ARE activation in the HepG2-ARE cell line was evaluated using Steady-Glo® Luciferase assay system (E2510, Promega, Madison, WI, USA), following the manufacturer’s instructions. In brief, the HepG2 -ARE cells were seeded at a density of 10,000 cells/well in 384-well plates containing 50 µL of the complete media per well using a Multidrop Combi dispenser (Thermo Fisher Scientific, Waltham, MA, USA) and then the plate cultures were incubated at 37 °C in a 5% CO2 humidified incubator for 20 h. The HepG2-ARE cells were incubated with compounds for 18 h. The known ARE activator TBHQ was used as a positive control and the cells treated with 0.35% DMSO and without compounds tested served as a vehicle control. The cells in the absence of DMSO and the compounds were utilized for measuring the background luminescence. The reporter activity was measured by the addition of 25 µL Steady-Glo® luciferase assay reagent (Promega) for 30 min using the Multidrop Combi dispenser (Thermo Fisher Scientific). The luminescence intensities of the 384-well plates were read on Enspire microplate reader (Perkin Elmer Inc.). Percent cytotoxicity of compounds was normalized to the positive and negative controls on each assay plate.
The ARE fold induction of the compounds was measured by dividing the luminescence absorbance of the treatment by the specific luminescence absorbance of the control sample and multiplying by 100. The control sample (in the presence of DMSO vehicle and without the compounds) was set at 100%.

[5] = Homo sapiens, A549, 72 h incubation
[6] = Homo sapiens, MRC5, 72 h incubation

SMILES | IC50 [2, 5] | Fold-Increase Over Trolox [1] | Slope (in Trolox Equivalents) [1] | total antioxidant capacity compared with the control (Trolox) [1] | IC50 ([2]; 72 h incubation) | IC50 ([3]; 72 h incubation) | IC50 [3, 6] | toxicity to HepG2-ARE cells [4] | ARE activation among all compounds (rank in words) ([4]; HepG2-ARE cells, 18 h)
Cc1c(C)c2c(c(C)c1O)CCC(C)(C(=O)O)O2 (centres unmarked) [Trolox, reference compound] |  | 1.0 | 0.001014 ± 1.125 × 10^−5 |  |  |  |  |  | 
COc1cc(/C=C/C(=O)O)ccc1O [Ferulic acid] |  | 1.8 | 0.001775 ± 5.026 × 10^−5 | higher | > 250 µM | > 250 µM |  |  | 
Oc1cc(O)c2c(c1)O[C@H](c1ccc(O)c(O)c1)[C@@H](O)C2 [(+)-Catechin] |  | 2.0 | 0.002029 ± 3.184 × 10^−5 | higher | > 250 µM | > 250 µM |  |  | 
C[C@@H]1O[C@@H](O[C@H]2[C@H](Oc3cc(O)c4c(c3)O[C@H](c3ccc(O)cc3)CC4=O)O[C@H](CO)[C@@H](O)[C@@H]2O)[C@H](O)[C@H](O)[C@H]1O [Naringin] | > 250 µM | 0.5 | 0.0005177 ± 9.755 × 10^−6 | lower |  |  | > 250 µM |  | 
O=c1c(O[C@@H]2O[C@H](CO)[C@@H](O)[C@H](O)[C@H]2O)c(-c2ccc(O)c(O)c2)oc2cc(O)cc(O)c12 [Quercetin 3-β-D-glucoside] |  | 2.9 | 0.002908 ± 1.522 × 10^−4 | higher | 6.89 µM | 12.2 µM |  | toxic to cells | 
O=C(OC[C@H]1O[C@@H](OC(=O)c2cc(O)c(O)c(O)c2)[C@H](OC(=O)c2cc(O)c(O)c(O)c2)[C@@H](OC(=O)c2cc(O)c(O)c(O)c2)[C@@H]1OC(=O)c1cc(O)c(O)c(O)c1)c1cc(O)c(O)c(O)c1 [Penta-O-galloyl-β-D-glucose] |  | 11.5 | 0.01167 ± 5.756 × 10^−4 | higher | 6.11 µM | 10.4 µM |  | toxic to cells | 
O=c1oc2c(O)c(O)cc3c(=O)oc4c(O)c(O)cc1c4c23 [Ellagic acid] | > 250 µM | 0.5 | 0.0005183 ± 2.860 × 10^−5 | lower |  |  | > 250 µM |  | 
C[S+]([O-])CCCCN=C=S (racemic) [DL-Sulforaphane, reference compound] |  |  |  |  | 17 µM | 9.95 µM |  |  | 
Oc1cc(O)c2c(c1)O[C@H](c1ccc(O)c(O)c1)[C@H](O)C2 [(−)-Epicatechin] | > 250 µM | 3.7 | 0.003729 ± 7.546 × 10^−5 | higher |  |  | > 250 µM |  | strongest
O=C(O[C@@H]1Cc2c(O)cc(O)cc2O[C@@H]1c1ccc(O)c(O)c1)c1cc(O)c(O)c(O)c1 [Epicatechin gallate] | 66 µM | 4.2 | 0.004294 ± 1.570 × 10^−4 | higher |  |  | 64.4 µM | toxic to cells | 
O=C(O)c1cc(O)c(O)c(O)c1 [Gallic acid] | > 250 µM |  | 0.002541 ± 1.392 × 10^−5 | higher |  |  | 48.2 µM |  | 

Further lines, with some results ahead:

IC50 [2, 5] | SMILES | Fold-Increase Over Trolox [1] | Slope (in Trolox Equivalents) [1] | total antioxidant capacity compared with the control (Trolox) [1] | IC50 ([2]; 72 h incubation) | IC50 ([3]; 72 h incubation) | IC50 [3, 6] | toxicity to HepG2-ARE cells [4] | ARE activation among all compounds (rank in words) ([4]; HepG2-ARE cells, 18 h)
87.7 µM | O=c1c(O)c(-c2ccc(O)c(O)c2)oc2cc(O)cc(O)c12 [Quercetin] | 4.0 | 0.004045 ± 1.392 × 10^−4 | higher |  |  | 99.5 µM |  | 
> 250 µM | COc1cc(C(=O)O)cc(OC)c1O [Syringic acid] | 1.1 | 0.001088 ± 1.057 × 10^−5 | higher |  |  | > 250 µM |  | 
> 250 µM | O=C(O)[C@]1(O)C[C@@H](O)[C@@H](O)[C@H](O)C1 [Quinic acid] | <0.1 | −0.0000004 ± 1.034 × 10^−6 | lower |  |  | > 250 µM |  | 
> 250 µM | COc1cc(C(=O)O)ccc1O [Vanillic acid] | 0.7 | 0.0007396 ± 4.245 × 10^−5 | lower |  |  | > 250 µM |  | 
> 250 µM | C[C@@H]1O[C@@H](OC[C@H]2O[C@@H](Oc3c(-c4ccc(O)c(O)c4)oc4cc(O)cc(O)c4c3=O)[C@H](O)[C@@H](O)[C@@H]2O)[C@H](O)[C@H](O)[C@H]1O [Rutin] | 2.9 | 0.002962 ± 1.551 × 10^−4 | higher |  |  | > 250 µM |  | 
> 250 µM | O=C(O)C=Cc1ccc(O)cc1 [p-Coumaric acid] | 0.3 | 0.0003139 ± 1.434 × 10^−5 | lower |  |  | > 250 µM |  | 
> 250 µM | O=C(O)c1ccc(O)cc1 [p-Hydroxybenzoic acid] |  | −0.000008 ± 1.260 × 10^−5 | lower |  |  | > 250 µM |  | 
